Experimental data: patent US20210403606A1, “METHOD FOR SEPARATING AND PURIFYING POLYSACCHARIDES FROM GANODERMA SPORES” (ZHONGKE HEALTH INDUSTRY GROUP JIANGSU PHARMACEUTICAL CO., …, priority 2018, published 2021)

Assays:
[1] = test system: transplanted tumor S180; assay: Inhibitory effects on the transplanted tumor S180 in mice by tail vein injection; assay type: in vivo, ICR mice
Description: (§1) 1.2. Animals: ICR mice, 18-22 g, half males and half females, provided by the Animal Laboratory of China Pharmaceutical University. The animals were fed with pellet feed in an air-conditioned room at a temperature of 18-24° C., and a relative humidity of 70%.
3.2. Inhibitory effects of No. 1, No. 2, and No. 3 on the transplanted tumor S180 in mice by tail vein injection
3.2.1. Route of administration: No. 1, No. 2, and No. 3 are administrated by tail vein injection (iv).
(§2) 3.2.2. Schedule of administration: the mice are inoculated with solid-type 5180 tumors according to protocols of transplanted tumor research, and 24 hours after inoculation, the medicines are intravenously administered once every other day for a total of 4 doses. On the day after stopping administration, the mice are sacrificed and dissected.
3.2.3. Dose setting: There are 6 groups in total, namely:
3.2.4. Volume of administration: 0.4 ml/20 g
(§3) 3.2.5. Test method: 60 mice of the foregoing specification were inoculated with solid-type 5180 tumors according to protocols of the transplanted tumor research. The mice were weighed 24 hours after inoculation, and randomly divided into 6 groups, each with 10 mice, having half males and half females. The blank control group and the CTX group were respectively used as a negative control group and a positive control group. 24 hours after inoculation, the medicines were intravenously administered once every other day for a total of 4 doses. The mice were weighed on the day after stopping administration. The tumor-bearing mice were sacrificed, and the tumor masses were separated and weighed, and the obtained data was statistically processed (t-test).

[2] = test system: transplanted tumor Heps; assay: Inhibitory effects on the transplanted tumor Heps in mice by tail vein injection; assay type: in vivo, ICR mice
Description: as §1
3.1. Inhibitory effects of No. 1, No. 2, and No. 3 on the transplanted tumor Heps in mice by tail vein injection
3.1.1. Route of administration: No. 1, No. 2, and No. 3 are administrated by tail vein injection (iv).
as §2, with “3.1.2.” for “3.2.2.”, “Heps” for “5180”
3.1.3. Dose setting: There are 6 groups in total, namely:
3.1.4. Volume of administration: 0.4 ml/20 g
as §3, with “3.1.5.” for “3.2.5.”, “Heps” for “5180”

## O=P1(N(CCCl)CCCl)NCCCO1 (centres unmarked) [CTX, Cyclophosphamide]
[1]; S180, 30 mg/kg once every other day, 4 doses
  Tumor inhibition rate: 65.71%
[1]; S180, 30 mg/kg once every other day, 4 doses, X ± SD, n = 10
  Tumor weight: 0.55 ± 0.18 g
[1]; S180-bearing mice, 30 mg/kg once every other day, 4 doses, X ± SD, n = 10
  Weight After administration: 23.2 ± 2.74
[1]; S180-bearing mice, 30 mg/kg, baseline body weight, X ± SD, n = 10
  Weight Before administration: 20.1 ± 1.28
[2]; Heps, 30 mg/kg once every other day, 4 doses
  Tumor inhibition rate: 74.20%
[2]; Heps, 30 mg/kg once every other day, 4 doses, X ± SD, n = 10
  Tumor weight: 0.42 ± 0.19 g
[2]; Heps-bearing mice, 30 mg/kg once every other day, 4 doses, X ± SD, n = 10
  Weight After administration: 23.2 ± 2.74
[2]; Heps-bearing mice, 30 mg/kg, baseline body weight, X ± SD, n = 10
  Weight Before administration: 20.0 ± 1.36
